The values that follow come from patent US11724992B2 (Novartis AG, priority 2017, dated 2023).

SMILES strings stand for the structures.

In the first experiment the test system is IL-1β production in PMA-differentiated THP-1 cells. Nature of the experiment: IL-1β production in PMA-differentiated THP-1 cells stimulated with gramicidin (hTHP-1 assay, 2% fetal bovine serum; Procedures 1-3). Type of experiment: cell-based, human. Particulars: Homo sapiens, THP-1, hTHP-1 assay containing 2% fetal bovine serum; class symbols; read-out: hTHP-1 IC50 (Average IC50 of compounds in hTHP-1 assay). The procedure: The following protocol is suitable for testing the activity of the compounds disclosed herein.
Procedure 1: IL-1β Production in PMA-Differentiated THP-1 Cells Stimulated with Gramicidin
THP-1 cells were purchased from the American Type Culture Collection and sub-cultured according to instructions from the supplier. Cells were cultured in complete RPMI 1640 (containing 10% heat inactivated FBS, penicillin (100 units/ml) and streptomycin (100 μg/ml)), and maintained in log phase prior to experimental setup. Prior to the experiment, compounds were dissolved in dimethyl sulfoxide (DMSO) to generate a 30 mM stock. The compound stock was first pre-diluted in DMSO to 3, 0.34, 0.042 and 0.0083 mM intermediate concentrations and subsequently spotted using Echo550 liquid handler into an empty 384-well assay plate to achieve desired final concentration (e.g. 100, 33, 11, 3.7, 1.2, 0.41, 0.14, 0.046, 0.015, 0.0051, 0.0017 μM). DMSO was backfilled in the plate to achieve a final DMSO assay concentration of 0.37%. The plate was then sealed and stored at room temperature until required.
THP-1 cells were treated with PMA (Phorbol 12-myristate 13-acetate) (20 ng/ml) for 16-18 hours. On the day of the experiment the media was removed and adherent cells were detached with trypsin for 5 minutes. Cells were then harvested, washed with complete RPMI 1640, spun down, and resuspended in RPMI 1640 (containing 2% heat inactivated FBS, penicillin (100 units/ml) and streptomycin (100 μg/ml). The cells were plated in the 384-well assay plate containing the spotted compounds at a density of 50,000 cells/well (final assay volume 50 μl). Cells were incubated with compounds for 1 hour and then stimulated with gramicidin (5 μM) (Enzo) for 2 hours. Plates were then centrifuged at 340 g for 5 min. Cell free supernatant (40 μL) was collected using a 96-channel PlateMaster (Gilson) and the production of IL-1β was evaluated by HTRF (cisbio). The plates were incubated for 18 h at 4° C. and read using the preset HTRF program (donor emission at 620 nm, acceptor emission at 668 nm) of the SpectraMax i3x spectrophotometer (Molecular Devices, software SoftMax 6). A vehicle only control and a dose titration of CRID3 (100-0.0017 μM) were run concurrently with each experiment.
Procedure 2: IL-1β Production in PMA-Differentiated THP-1 Cells Stimulated with Gramicidin
THP-1 cells were purchased from the American Type Culture Collection and sub-cultured according to instructions from the supplier. Prior to experiments, cells were cultured in complete RPMI 1640 (containing 10% heat inactivated FBS, penicillin (100 units/ml) and streptomycin (100 μg/ml)), and maintained in log phase prior to experimental setup. Prior to the experiment THP-1 were treated with PMA (Phorbol 12-myristate 13-acetate) (20 ng/ml) for 16-18 hours. Compounds were dissolved in dimethyl sulfoxide (DMSO) to generate a 30 mM stock. On the day of the experiment the media was removed and adherent cells were detached with trypsin for 5 minutes. Cells were then harvested, washed with complete RPMI 1640, spun down, resuspended in RPMI 1640 (containing 2% heat inactivated FBS, penicillin (100 units/ml) and streptomycin (100 μg/ml). The cells were plated in a 384-well plate at a density of 50,000 cells/well (final assay volume 50 μl). Compounds were first dissolved in assay medium to obtain a 5× top concentration of 500 μM. 10 step dilutions (1:3) were then undertaken in assay medium containing 1.67% DMSO. 5× compound solutions were added to the culture medium to achieve desired final concentration (e.g. 100, 33, 11, 3.7, 1.2, 0.41, 0.14, 0.046, 0.015, 0.0051, […]). Final DMSO concentration was at 0.37%. Cells were incubated with compounds for 1 hour and then stimulated with gramicidin (5 μM) (Enzo) for 2 hours. Plates were then centrifuged at 340 g for 5 min. Cell free supernatant (40 μL) was collected using a 96-channel PlateMaster (Gilson) and the production of IL-1β was evaluated by HTRF (cisbio). […]
As for `COC(C)(C)c1ccc(S(N)(=O)=NC(=O)Nc2c3c(cc4c2CCC4)CCC3)cc1` (stereo not drawn) [Example 274, N′-(1,2,3,5,6,7-hexahydro-s-indacen-4-ylcarbamoyl)-4-(2-methoxypropan-2-yl)benzenesulfonimidamide], the IC50 – broadly, the concentration at which inhibition is half-maximal – lay within 200 to 1000 nM. For `CN(C)Cc1ccc(S(N)(=O)=NC(=O)Nc2c3c(cc4c2CCC4)CCC3)c(F)c1` (stereo not drawn) [Example 48, 4-((dimethylamino)methyl)-2-fluoro-N′-(1,2,3,5,6,7-hexahydro-s-indacen-4-ylcarbamoyl)benzene-sulfonimidamide], the IC50 is 40 to 200 nM. `CC(C)(O)c1csc(S(N)(=O)=NC(=O)Nc2c3c(c(Cl)c4c2CCC4)CCC3)c1` (stereo not drawn) [Example 14, N′-(8-chloro-1,2,3,5,6,7-hexahydro-s-indacen-4-ylcarbamoyl)-4-(2-hydroxypropan-2-yl)thiophene-2-sulfonimidamide]: the IC50 was 8 to 40 nM.

`Cc1cc(S(N)(=O)=NC(=O)Nc2c(C(C)C)cc(OC(F)F)cc2C(C)C)sc1C(C)(C)O` (stereo not drawn) [Example 57, N′-((4-(difluoromethoxy)-2,6-diisopropylphenyl)carbamoyl)-5-(2-hydroxypropan-2-yl)-4-methylthiophene-2-sulfonimidamide]: the IC50 fell in the range of 200 to 1000 nM.

The experiment is the same for the next values; noted with them: hTHP-1 assay containing 2% fetal bovine serum; class symbols; read-out: hTHP-1 IC50 (Average IC50 of compounds in hTHP-1 assay).
Regarding `CC(C)(O)c1cccc(S(N)(=O)=NC(=O)Nc2c3c(c(F)c4c2CCC4)CCC3)c1` (single isomer, unassigned) [Example 128], the IC50 was 200 to 1000 nM. On the same count and under the same terms, the same measure for `CC(C)(O)c1ncc([S@@](N)(=O)=NC(=O)Nc2c3c(cc4c2CCC4)CCC3)s1` [Example 5]: 200 to 1000 nM; for `CC(C)(O)c1csc(S(N)(=O)=NC(=O)Nc2c3c(c(Cl)c4c2CCC4)CCC3)c1` (single isomer, unassigned) [Example 89]: 8 to 40 nM. `CC(C)(O)c1ccc(S(N)(=O)=NC(=O)Nc2c3c(cc4c2CCC4)CCC3)c(F)c1` (single isomer, unassigned) [Example 88]: the IC50 was in the range of 1000 to 5000 nM.

Regarding `CC(C)c1cc(OC(F)F)cc(C(C)C)c1NC(=O)N=S(N)(=O)c1ncc(C(C)(C)O)s1` (single isomer, unassigned) [Example 136], the IC50 fell in the range of 1000 to 5000 nM. Take `CN(C)Cc1cc(F)c(S(N)(=O)=NC(=O)Nc2c3c(cc4c2CCC4)CCC3)s1` (single isomer, unassigned) [Example 382, (S) or (R)-5-((dimethylamino)methyl)-3-fluoro-N′-((1,2,3,5,6,7-hexahydro-s-indacen-4-yl)carbamoyl)thiophene-2-sulfonimidamide]: the 50% inhibitory concentration (IC50) was 1000 to 5000 nM. Same read-out and setting: the result for `Cc1cc(S(N)(=O)=NC(=O)Nc2c(C(C)C)cc(OC(F)F)cc2C(C)C)sc1C(C)(C)O` (single isomer, unassigned) [Example 172] reads 200 to 1000 nM; that for `[2H]C1([2H])CCc2c1cc1c(c2NC(=O)N=S(N)(=O)c2cnc(C(C)(C)O)s2)CCC1([2H])[2H]` (stereo not drawn) [Example 228, N′-((1,2,3,5,6,7-hexahydro-s-indacen-4-yl-1,1,7,7-d4)carbamoyl)-2-(2-hydroxypropan-2-yl)thiazole-5-sulfonimidamide], 40 to 200 nM; that for `Cc1oc(S(N)(=O)=NC(=O)Nc2c3c(cc4c2CCC4C)CCC3)cc1C(C)(C)O` (single isomer, unassigned) [Example 304, (R,R) or (R,S)-4-(2-hydroxypropan-2-yl)-5-methyl-N′-((3-methyl-1,2,3,5,6,7-hexahydro-s-indacen-4-yl)carbamoyl)furan-2-sulfonimidamide; resolved from example 123], 40 to 200 nM.

For the compound `CC(C)c1cc(C#N)c(F)c(C(C)C)c1NC(=O)N=S(N)(=O)c1sc(C(C)(C)O)nc1CO` (single isomer, unassigned) [Example 195], the IC50 lay within 5000 to 30000 nM. Turning to `CNCc1ccc(S(N)(=O)=NC(=O)Nc2c3c(cc4c2CCC4)CCC3)c(F)c1` (single isomer, unassigned) [Example 403, (R) or (S)-2-fluoro-N′-((1,2,3,5,6,7-hexahydro-s-indacen-4-yl)carbamoyl)-4-((methylamino)methyl)benzenesulfonimidamide], the IC50 was in the range of 200 to 1000 nM. Take `CC(C)(O)c1ccc(S(N)(=O)=NC(=O)Nc2c3c(cc4c2CCC4)CCC3)cc1F` (single isomer, unassigned) [Example 178]: the IC50 lay in the range of 5000 to 30000 nM.

In the case of `CN(C)Cc1ccc(S(N)(=O)=NC(=O)Nc2c3c(cc4c2CCC4)CCC3)cc1` (single isomer, unassigned) [Example 118], the IC50 was in the range of 1000 to 5000 nM. Consider `CC(C)(O)c1csc(S(N)(=O)=NC(=O)Nc2c3c(c(F)c4c2CCC4)CCC3)c1` (single isomer, unassigned) [Example 206], for which the IC50 lay in the range of 8 to 40 nM. On to `Cc1oc(S(N)(=O)=NC(=O)Nc2c3c(cc4c2C(C)CC4)CCC3)cc1C(C)(C)O` (single isomer, unassigned) [Example 303, (R,S) or (R,R) or (S,R) or (S,S)-4-(2-hydroxypropan-2-yl)-5-methyl-N′-((3-methyl-1,2,3,5,6,7-hexahydro-s-indacen-4-yl)carbamoyl)furan-2-sulfonimidamide resolved from example 127], for which the IC50 fell in the range of 8 to 40 nM. On to `CC(C)(O)c1ccc(S(N)(=O)=NC(=O)Nc2c3c(cc4c2CCC4)CCC3)c(F)c1` (single isomer, unassigned) [Example 87], for which the IC50 was in the range of 40 to 200 nM. `CC(C)c1cc(C#N)cc(C(C)C)c1NC(=O)N=S(N)(=O)c1sc(C(C)(C)O)cc1F` (single isomer, unassigned) [Example 182]: the IC50 was 8 to 40 nM.

With `CC(C)(O)c1ncc(S(N)(=O)=NC(=O)Nc2c3c(cc4c2OCC4)CCC3)s1` (single isomer, unassigned) [Example 343, (R) or (S)-2-(2-hydroxypropan-2-yl)-N′-((3,5,6,7-tetrahydro-2H-indeno[5,6-b]furan-8-yl)carbamoyl)thiazole-5-sulfonimidamide], the IC50 lay within 40 to 200 nM. Turning to `COC(C)(C)c1ccc(S(N)(=O)=NC(=O)Nc2c3c(cc4c2CCC4)CCC3)cc1` (single isomer, unassigned) [Example 399, (R) or (S)-N′-((1,2,3,5,6,7-hexahydro-s-indacen-4-yl)carbamoyl)-4-(2-methoxypropan-2-yl)benzenesulfonimidamide], the concentration for half-maximal inhibition (IC50) lay within 200 to 1000 nM.

Turning to `CC(C)(O)c1cccc(S(N)(=O)=NC(=O)Nc2c3c(c(F)c4c2CCC4)CCC3)c1` (single isomer, unassigned) [Example 129], the IC50 was 5000 to 30000 nM.

Turning to `Cc1cc(C(C)(C)O)ccc1S(N)(=O)=NC(=O)Nc1c2c(cc3c1CCC3)CCC2` (single isomer, unassigned) [Example 99], the IC50 lay within 200 to 1000 nM.

`Cc1oc(S(N)(=O)=NC(=O)Nc2c3c(cc4c2C(C)CC4)CCC3)cc1C(C)(C)O` [Example 127, Two isomers of (R,S)-and (R,R)-or (S,S)-and (S,R) 4-(2-hydroxypropan-2-yl)-5-methyl-N′-((3-methyl-1,2,3,5,6,7-hexahydro-s-indacen-4-yl)carbamoyl)furan-2-sulfonimidamide]: the IC50 is 40 to 200 nM. As for `CC(C)(O)c1ncc(S(N)(=O)=NC(=O)Nc2cc3c(c4c2CCC4)CCC3)s1` (single isomer, unassigned) [Example 420, (S) or (R)-N′-((1,2,3,6,7,8-hexahydro-as-indacen-4-yl)carbamoyl)-2-(2-hydroxypropan-2-yl)thiazole-5-sulfonimidamide], the IC50 was in the range of 1000 to 5000 nM.
